Assays:
[1] = target: T1, BRD9 (Homo sapiens, UniProt Q9H8M2); assay: BRD9 degradation, HiBiT-BRD9 KI HEK293 (LgBiT) cells, NanoGlo Lytic Endpoint assay (Assay Protocol 1); type: cell-based; details: Assay protocol 1, BRD9 degradation; for Dmax: HEK293, read-out: Dmax; for DC50: read-out: DC50
T1 sequence (Q9H8M2 1-597): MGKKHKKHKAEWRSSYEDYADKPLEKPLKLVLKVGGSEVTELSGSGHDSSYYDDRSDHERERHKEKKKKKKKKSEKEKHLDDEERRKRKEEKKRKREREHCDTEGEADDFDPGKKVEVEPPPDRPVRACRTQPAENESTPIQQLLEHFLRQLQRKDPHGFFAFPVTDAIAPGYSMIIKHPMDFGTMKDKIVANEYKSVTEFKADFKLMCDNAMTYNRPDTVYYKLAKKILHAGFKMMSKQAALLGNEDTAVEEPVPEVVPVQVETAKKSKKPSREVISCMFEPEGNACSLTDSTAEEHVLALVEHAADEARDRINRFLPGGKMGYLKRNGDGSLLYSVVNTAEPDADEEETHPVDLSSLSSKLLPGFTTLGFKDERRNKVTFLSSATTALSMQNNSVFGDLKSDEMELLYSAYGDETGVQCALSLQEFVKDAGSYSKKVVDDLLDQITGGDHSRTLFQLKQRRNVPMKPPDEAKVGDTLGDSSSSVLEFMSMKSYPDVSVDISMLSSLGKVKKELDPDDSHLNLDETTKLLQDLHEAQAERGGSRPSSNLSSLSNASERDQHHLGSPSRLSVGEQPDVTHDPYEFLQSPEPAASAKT
How it was run: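 HiBiT-tagged BRD9 knock-in HEK293 (LgBiT) cells exposed to compounds for 6 h at 37 °C, 5% CO2. Residual BRD9 measured by HiBiT lytic luminescence. % BRD9 remaining normalised to DMSO-treated cells (high) and no-cell wells (low).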

[2] = target: T1, BRD9; assay: Degradation of BRD9 (IF), immunofluorescence in MV4-11 cells, 24 hours (Assay Protocol 2); type: cell-based; set-up: A suspension of MV4-11 cells (ATCC CRL-9591) was prepared; host or cells: MV4-11; details: BRD9 degradation; for Dmax: MV4-11, Assay protocol 2, read-out: Dmax; for DC50: Assay protocol 2, read-out: DC50
How it was run: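 MV4-11 cells treated with compound 24 h at 37° C., then fixed, permeabilised and immunostained for BRD9 (anti-BRD9 E4Q3F, Alexa 647 secondary, Hoechst counterstain). High-content imaging quantified nuclear BRD9 signal; % BRD9 remaining normalised to DMSO and 100 nM CFT-8634 controls.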

| Structure (SMILES) | Dmax [1] [%] | Dmax [2] [%] | DC50 [1] [nM] | DC50 [2] [nM] |
| --- | --- | --- | --- | --- |
| COc1cc(-c2cn(C)c(=O)c3ccsc23)cc(OC)c1CN1CCN(Cc2cccc3c2CCN(C(=O)/C(C#N)=C/C(C)(C)C)C3C)CC1 (mixture of isomers) [Compound B59, (E/Z)-2-(5-((4-(2,6-dimethoxy-4-(5-methyl-4-oxo-4,5-dihydrothieno[3,2-c]pyridin-7-yl)benzyl)piperazin-1-yl)methyl)-1-methyl-1,2,3,4-tetrahydroisoquinoline-2-carbonyl)-4,4-dimethypent-2-enenitrile] | 40 to 70 | 40 to 70 | – | – |
| COc1cc(-c2cn(C)c(=O)c(C)c2C)cc(OC)c1CN(C)Cc1cccc(C2CCCN2C(=O)/C(C#N)=C/C(C)(C)C)c1 (mixture of isomers) [Compound B78, (E/Z)-2-(2-(3-(((2,6-dimethoxy-4-(1,4,5-trimethyl-6-oxo-1,6-dihydropyridin-3-ylbenzyl)methyl)amino)methyl)phenyl)pyrrolidine-1-carbonyl)-4,4-dimethylpent-2-enenitrile] | > 75 | > 75 | 1.25 to 10 | 10 to 25 |
| COc1cc(-c2cn(C)c(=O)c(C)c2C)cc(OC)c1CN1CCN(Cc2cccc3c2CCN(C(=O)/C(C#N)=C/C2CCOC2)C3C)CC1 (mixture of isomers) [Compound B94, (E/Z)-2-(5-((4-(2,6-dimethoxy-4-(1,4,5-trimethyl-6-oxo-1,6-dihydropyridin-3-yl)benzyl)piperazin-1-yl)methyl)-1-methyl-1,2,3,4-tetrahydroisoquinoline-2-carbonyl)-3-(tetrahydrofuran-3-yl)acrylonitrile] | > 75 | 40 to 70 | 1.25 to 10 | 1.25 to 10 |
| COc1cc(-c2cn(C)c(=O)c(C)c2C)cc(OC)c1CN1CCN(Cc2cccc3c2CCN(C(=O)/C(C#N)=C/C2CC(F)(F)C2)C3C)C2(CC2)C1 (mixture of isomers) [Compound B116] | > 75 | > 75 | 1.25 to 10 | < 1.25 |
| COc1cc(-c2cn(C)c(=O)c(C)c2C)cc(OC)c1CN1C[C@H](C)N(Cc2cccc3c2CCN(C(=O)/C(C#N)=C/C(C)(C)C)C3C)C[C@H]1C (mixture of isomers) [Compound B122, (E/Z)-2-(5-(((2S,5R)-4-(2,6-dimethoxy-4-(1,4,5-trimethyl-6-oxo-1,6-dihydropyridin-3-yl)benzyl)-2,5-dimethylpiperazin-1-yl)methyl)-1-methyl-1,2,3,4-tetrahydroisoquinoline-2-carbonyl)-4,4-dimethylpent-2-enenitrile] | > 75 | > 75 | 1.25 to 10 | 10 to 25 |
| COc1cc(-c2cn(C)c(=O)c(C)c2C)cc(OC)c1CN1CCN(Cc2cccc3c2CCN(C(=O)/C(C#N)=C/C2(C)CCOCC2)C3C)C2(CC2)C1 (mixture of isomers) [Compound B123, (E/Z)-2-(5-((7-(2,6-dimethoxy-4-(1,4,5-trimethyl-6-oxo-1,6-dihydropyridin-3-yl)benzyl)-4,7-diazaspiro[2.5]octan-4-yl)methyl)-1-methyl-1,2,3,4-tetrahydroisoquinoline-2-carbonyl)-3-(4-methyltetrahydro-2H-pyran-4-yl)acrylonitrile] | > 75 | > 75 | 1.25 to 10 | < 1.25 |
| COCC1(/C=C(\C#N)C(=O)N2CCc3c(CN4CCN(Cc5c(OC)cc(-c6cn(C)c(=O)c(C)c6C)cc5OC)CC45CC5)cccc3C2C)CC1 (mixture of isomers) [Compound B124, (E/Z)-2-(5-((7-(2,6-dimethoxy-4-(1,4,5-trimethyl-6-oxo-1,6-dihydropyridin-3-yl)benzyl)-4,7-diazaspiro[2.5]octan-4-yl)methyl)-1-methyl-1,2,3,4-tetrahydroisoquinoline-2-carbonyl)-3-(1-(methoxymethyl)cyclopropyl)acrylonitrile] | > 75 | > 75 | < 1.25 | < 1.25 |
| COc1cc(-c2cn(C)c(=O)c(C)c2C)cc(OC)c1CN1CCN(Cc2cccc3c2CCN(C(=O)/C(C#N)=C\C(C)(C)CF)C3C)C2(CC2)C1 (mixture of isomers) [Compound B125, (E/Z)-2-(5-((7-(2,6-dimethoxy-4-(1,4,5-trimethyl-6-oxo-1,6-dihydropyridin-3-yl)benzyl)-4,7-diazaspiro[2.5]octan-4-yl)methyl)-1-methyl-1,2,3,4-tetrahydroisoquinoline-2-carbonyl)-5-fluoro-4,4-dimethylpent-2-enenitrile] | > 75 | > 75 | < 1.25 | < 1.25 |
| COc1cc(-c2cn(C)c(=O)c(C)c2C)cc(OC)c1CN1CCN(Cc2cccc3c2CCN(C(=O)/C(C#N)=C/C(C)(C)N2CCN(C4COC4)CC2)C3C)C2(CC2)C1 (mixture of isomers) [Compound B126, (E/Z)-2-(5-((7-(2,6-dimethoxy-4-(1,4,5-trimethyl-6-oxo-1,6-dihydropyridin-3-yl)benzyl)-4,7-diazaspiro[2.5]octan-4-yl)methyl)-1-methyl-1,2,3,4-tetrahydroisoquinoline-2-carbonyl)-4-methyl-4-(4-(oxetan-3-yl)piperazin-1-yl)pent-2-enenitrile] | > 75 | 70 to 75 | 1.25 to 10 | 1.25 to 10 |
| COc1cc(-c2cn(C)c(=O)c(C)c2C)ccc1OC1CCN(Cc2cccc3c2CCN(C(=O)/C(C#N)=C/C(C)(C)C)C3C)CC1 (mixture of isomers) [Compound B127, (E/Z)-2-(5-((4-(2-methoxy-4-(1,4,5-trimethyl-6-oxo-1,6-dihydropyridin-3-yl)phenoxy)piperidin-1-yl)methyl)-1-methyl-1,2,3,4-tetrahydroisoquinoline-2-carbonyl)-4,4-dimethylpent-2-enenitrile] | > 75 | > 75 | 1.25 to 10 | 1.25 to 10 |
| CCCC(c1ccc(C(=O)N(C)CCCCC(=O)N2CCN(Cc3c(OC)cc(-c4cn(C)c(=O)c(C)c4C)cc3OC)CC2)cc1)N(C)C(=O)/C(C#N)=C/c1nccs1 (mixture of isomers) [Compound B181, (E/Z)-4-(1-(2-cyano-N-methyl-3-(thiazol-2-yl)acrylamido)butyl)-N-(5-(4-(2,6-dimethoxy-4-(1,4,5-trimethyl-6-oxo-1,6-dihydropyridin-3-yl)benzyl)piperazin-1-yl)-5-oxopentyl)-N-methylbenzamide] | 40 to 70 | 40 to 70 | – | 10 to 25 |
| CCCC(c1ccc(C(=O)N(C)CCCCCCC(=O)N2CCN(Cc3c(OC)cc(-c4cn(C)c(=O)c(C)c4C)cc3OC)CC2)cc1)N(C)C(=O)/C(C#N)=C/c1nccs1 (mixture of isomers) [Compound B182, (E/Z)-4-(1-(2-cyano-N-methyl-3-(thiazol-2-yl)acrylamido)butyl)-N-(7-(4-(2,6-dimethoxy-4-(1,4,5-trimethyl-6-oxo-1,6-dihydropyridin-3-yl)benzyl)piperazin-1-yl)-7-oxoheptyl)-N-methylbenzamide] | 40 to 70 | 40 to 70 | 25 to 1000 | 1.25 to 10 |
| CCCC(c1ccc(C(=O)N(C)CCCCCCCCC(=O)N2CCN(Cc3c(OC)cc(-c4cn(C)c(=O)c(C)c4C)cc3OC)CC2)cc1)N(C)C(=O)/C(C#N)=C/c1nccs1 (mixture of isomers) [Compound B183, (E/Z)-4-(1-(2-cyano-N-methyl-3-(thiazol-2-yl)acrylamido)butyl)-N-(9-(4-(2,6-dimethoxy-4-(1,4,5-trimethyl-6-oxo-1,6-dihydropyridin-3-yl)benzyl)piperazin-1-yl)-9-oxononyl)-N-methylbenzamide] | 40 to 70 | > 75 | 25 to 1000 | 1.25 to 10 |
| CCCC(c1cccc(C(=O)N2CCN(Cc3c(OC)cc(-c4cn(C)c(=O)c(C)c4C)cc3OC)CC2)c1)N(C)C(=O)/C(C#N)=C/c1nccs1 (mixture of isomers) [Compound B184, (E/Z)-2-cyano-N-(1-(3-(4-(2,6-dimethoxy-4-(1,4,5-trimethyl-6-oxo-1,6-dihydropyridin-3-yl)benzyl)piperazine-1-carbonyl)phenyl)butyl)-N-methyl-3-(thiazol-2-yl)acrylamide] | 40 to 70 | 40 to 70 | – | 1.25 to 10 |
| CCCC(c1cccc(CCC(=O)N2CCN(Cc3c(OC)cc(-c4cn(C)c(=O)c(C)c4C)cc3OC)CC2)c1)N(C)C(=O)/C(C#N)=C/c1nccs1 (mixture of isomers) [Compound B185, (E/Z)-2-cyano-N-(1-(3-(3-(4-(2,6-dimethoxy-4-(1,4,5-trimethyl-6-oxo-1,6-dihydropyridin-3-yl)benzyl)piperazin-1-yl)-3-oxopropyl)phenyl)butyl)-N-methy-3-(thiazol-2-yl)acrylamide] | 40 to 70 | > 75 | 10 to 25 | 1.25 to 10 |

From patent US20260092061A1, “COMPOUNDS FOR TARGETED PROTEIN DEGRADATION” (Amphista Therapeutics Limited, priority 2022, published 2026)
